Results reported in patent publication US20260373248A1, “DEGRADABLE PEPTOIDS” (Medici Therapeutics, Inc., priority 2023, published 2026).
Starred links: 1 amine or outer side, 2 acyl side, 3 side chain; linkers in the order of their positions; H or OH if unused. Non-standard residues stand in square brackets, D forms with d. Residues, ends and D or L forms follow the SMILES beside them. *: point of attachment. Gly(N-(3-decanoyloxypropyl)) = CCCCCCCCCC(=O)OCCCNCC(=O)O; N(2-decanoyloxyethyl)Gly = CCCCCCCCCC(=O)OCCNCC(=O)O; Gly(N-(CH2)3O-octanoyl) = CCCCCCCC(=O)OCCCNCC(=O)O; N(3-imidazol-1-ylpropyl)Gly = O=C(O)CNCCCn1ccnc1; Gly(N-3-morpholinopropyl) = O=C(O)CNCCCN1CCOCC1; N(2-ethylhexyl)Gly = CCCCC(CC)CNCC(=O)O; X2 = CCCCCCC(CCCC)CN(CC(=O)[*:2])[*:1]; N(CH(CH2OH)2)Gly = O=C(O)CNC(CO)CO; N(octyl)Gly = CCCCCCCCNCC(=O)O; NHexGly = CCCCCCNCC(=O)O; For = O=C*

Columns and labels:
[1] = Delivery vehicle size and polydispersity by dynamic light scattering; assay type: physicochemical
Outline: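 Dynamic light scattering in PBS gave size and polydispersity of peptoid LNPs. These were dialyzed overnight at 4 °C into tris-sucrose buffer pH 7.4 after microfluidic 1:3 volume mixing of mRNA in pH 5.0 citrate with ethanol lipids (peptoid:DSPC:cholesterol:DMG-PEG2000 20:1.79:7.16:1.84 w/w).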

mRNA = mRNA encapsulation (modified Quant-iT RiboGreen assay); assay type: physicochemical; conditions: for mean percent encapsulation of RNA: RiboGreen, without vs with Triton X-100; for % Encapsulation: mRNA
Outline: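 Encapsulated fraction was calculated by comparing RiboGreen signal (excitation 485 nm, emission 530 nm) of intact particles with that of particles lysed by a 10-min Triton X-100 treatment. Total mRNA concentration was taken from the lysed samples.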

firefly luciferase = assay: In vivo firefly luciferase expression after intravenous injection of fLuc mRNA delivery vehicles (IVIS imaging); design: species or system female Balb/c mice; conditions: for Total Flux: mice, 2.5 ug fLuc mRNA intravenously, 6 hours post-injection; for Total Flux (luciferase expression): fLuc mRNA, intravenous, Balb/c mice
Outline: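 Read-out is total photon flux per region of interest, from whole-body IVIS images taken 10 minutes after IP D-luciferin (30 mg/mL, 10 μL/g) and from excised organs. Female Balb/c mice aged 6-8 weeks received 2.5 ug fLuc mRNA Nutshells intravenously 6 hours before imaging.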

hEPO = assay: Quantification of hEPO in serum after IV injection of mRNA (Human EPO ELISA); assay type: in vivo; conditions: Balb/c mice, 2.5 μg mRNA IV, serum after 6 hours
Outline: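 Balb/c mice received 2.5 μg mRNA encoding human EPO by IV injection; serum was collected after 6 hours. hEPO was measured by sandwich ELISA (biotin-conjugate, streptavidin-HRP, TMB, A450) against kit standards (mIU/mL) and an external standard (ng/mL), with values interpolated and corrected for dilution.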

[2] = Peptoid quantity remaining in liver by HPLC-TOF mass spectrometry; assay type: in vivo; conditions: liver homogenate
Outline: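 Whole liver weighed; 20 mg tissue bead-homogenized in IPA/MeOH (8/2) with internal standard, centrifuged, supernatant run on BEH C8 HPLC-TOF MS. Peptoid concentration derived from linear calibration curve (0.2-50 μg/g) prepared in spiked untreated liver.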

luciferase = assay: Luciferase expression after local (intramuscular or subcutaneous) administration of mRNA; assay type: in vivo; conditions: mRNA 0.01 mpk, 6 hours; for IM Flux: intramuscular; for SC Flux: subcutaneous
Outline: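 Bioluminescence read 6 hours after fLuc mRNA dosing (peptoid Nutshells; 0.01 mpk S.C. or I.M., 0.1 mpk intratumoral) in female Balb/c mice aged 6-8 weeks. D-luciferin injected IP, whole-body imaging after 10 minutes, then organ imaging; total photon flux per region of interest.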

[3] = DLS in PBS, peptoid:DSPC:Cholesterol:DMG-PEG2000 weight ratio 20:1.79:7.16:1.84, mRNA

| SMILES | PDI [1, 3] | Particle Size [1, 3] | mean percent encapsulation of RNA (mRNA) | % of injected dose remaining in liver [2] | Total Flux (firefly luciferase) | hEPO (hEPO) | IM Flux (luciferase) | SC Flux (luciferase) | further results |
| --- | --- | --- | --- | --- | --- | --- | --- | --- | --- |
| CCCCCCCCCC(=O)OCCCN(CC(N)=O)C(=O)CN(CC(CC)CCCC)C(=O)CN(CCCOC(=O)CCCCCCCCC)C(=O)CN(CCCOC(=O)CCCCCCCCC)C(=O)CN(CCCOC(=O)CCCCCCCCC)C(=O)CN(CC(CC)CCCC)C(=O)CNC(CO)CO (stereo not shown) [Compound 103] (H-[N(CH(CH2OH)2)Gly][N(2-ethylhexyl)Gly][Gly(N-(3-decanoyloxypropyl))][Gly(N-(3-decanoyloxypropyl))][Gly(N-(3-decanoyloxypropyl))][N(2-ethylhexyl)Gly][Gly(N-(3-decanoyloxypropyl))]-NH2) | 0.111 | 81.5 nm | 76.8% | bdl | 8.56E+09 p/s | 961 ng/mL | 1.93E+08 p/s | 7.28E+08 p/s |  |
| CCCCCCCC(=O)OCCCN(CC(=O)N(CC(=O)N(CC(=O)N(CCCOC(=O)CCCCCCC)CC(=O)N(CC(N)=O)CC(CCCC)CCCCCC)CC(CC)CCCC)CC(CCCC)CCCCCC)C(=O)CN(CC(CC)CCCC)C(=O)CNC(CO)CO (stereo not shown) [Compound 104] (H-[N(CH(CH2OH)2)Gly][N(2-ethylhexyl)Gly][Gly(N-(CH2)3O-octanoyl)][X2][N(2-ethylhexyl)Gly][Gly(N-(CH2)3O-octanoyl)][X2]-NH2) | 0.092 | 78.8 nm | 93.6% | 7.45% | 4.50E+09 p/s | 693 ng/mL | 1.34E+08 p/s | 1.93E+08 p/s |  |
| CCCCCCCCCC(=O)OCCN(CC(N)=O)C(=O)CN(CCOC(=O)CCCCCCCCC)C(=O)CN(CC(CC)CCCC)C(=O)CN(CCOC(=O)CCCCCCCCC)C(=O)CN(CCOC(=O)CCCCCCCCC)C(=O)CN(CC(CC)CCCC)C(=O)CNC(CO)CO (stereo not shown) [Compound 105] (H-[N(CH(CH2OH)2)Gly][N(2-ethylhexyl)Gly][N(2-decanoyloxyethyl)Gly][N(2-decanoyloxyethyl)Gly][N(2-ethylhexyl)Gly][N(2-decanoyloxyethyl)Gly][N(2-decanoyloxyethyl)Gly]-NH2) | 0.150 | 75.9 nm | 73.2% | 7.51% | 1.05E+10 p/s | 580 ng/mL | 2.85E+08 p/s | 9.57E+08 p/s | Particle Size ([1]; formulation recipe D22): 75.9 nm; Particle Size ([1]; formulation recipe R1): 55.6 nm; Particle Size ([1]; formulation recipe R4): 59.6 nm; Particle Size ([1]; formulation recipe R5): 63.5 nm; Particle Size ([1]; formulation recipe R9): 64.9 nm; Particle Size ([1]; formulation recipe R10): 68.6 nm; % Encapsulation (mRNA; formulation recipe D22): 73.2%; % Encapsulation (mRNA; formulation recipe R1): 92.7%; % Encapsulation (mRNA; formulation recipe R4): 73.1%; % Encapsulation (mRNA; formulation recipe R5): 94.6%; % Encapsulation (mRNA; formulation recipe R9): 94.0%; % Encapsulation (mRNA; formulation recipe R10): 93.2%; Total Flux (luciferase expression) (firefly luciferase; formulation recipe D22): 1.05E+10 p/s; Total Flux (luciferase expression) (firefly luciferase; formulation recipe R1): 4.15E+08 p/s; Total Flux (luciferase expression) (firefly luciferase; formulation recipe R4): 2.47E+09 p/s; Total Flux (luciferase expression) (firefly luciferase; formulation recipe R5): 1.28E+09 p/s; Total Flux (luciferase expression) (firefly luciferase; formulation recipe R9): 1.56E+09 p/s; Total Flux (luciferase expression) (firefly luciferase; formulation recipe R10): 2.70E+09 p/s |
| CCCCCCCCCC(=O)OCCCN(CC(=O)N(CC(=O)N(CC(=O)N(CCCOC(=O)CCCCCCCCC)CC(=O)N(CC(N)=O)CC(CC)CCCC)CC(CC)CCCC)CC(CC)CCCC)C(=O)CN(CC(CC)CCCC)C(=O)CN(C=O)CCCN1CCOCC1 (stereo not shown) [Compound 106] (For-[Gly(N-3-morpholinopropyl)][N(2-ethylhexyl)Gly][Gly(N-(3-decanoyloxypropyl))][N(2-ethylhexyl)Gly][N(2-ethylhexyl)Gly][Gly(N-(3-decanoyloxypropyl))][N(2-ethylhexyl)Gly]-NH2) | 0.155 | 91.5 nm | 80.0% | 5.86% | 6.71E+09 p/s | 471 ng/mL | 1.07E+08 p/s | 1.70E+08 p/s |  |

The next lines start with results.

| PDI [1, 3] | Particle Size [1, 3] | mean percent encapsulation of RNA (mRNA) | % of injected dose remaining in liver [2] | SMILES | Total Flux (firefly luciferase) | hEPO (hEPO) | IM Flux (luciferase) | SC Flux (luciferase) | further results |
| --- | --- | --- | --- | --- | --- | --- | --- | --- | --- |
| 0.140 | 77.4 nm | 96.1% | 47.20% | CCCCCCCCCC(=O)OCCCN(CC(=O)N(CC(=O)N(CC(=O)N(CCCOC(=O)CCCCCCCCC)CC(=O)N(CC(N)=O)CC(CC)CCCC)CC(CC)CCCC)CC(CC)CCCC)C(=O)CN(CC(CC)CCCC)C(=O)CNCCCn1ccnc1 (stereo not shown) [Compound 107] (H-[N(3-imidazol-1-ylpropyl)Gly][N(2-ethylhexyl)Gly][Gly(N-(3-decanoyloxypropyl))][N(2-ethylhexyl)Gly][N(2-ethylhexyl)Gly][Gly(N-(3-decanoyloxypropyl))][N(2-ethylhexyl)Gly]-NH2) | 2.01E+09 p/s | 268 ng/mL | 7.22E+07 p/s | 7.41E+07 p/s |  |
| 0.263 | 96.7 nm | 49.9% | 7.35% | CCCCCCCCCC(=O)OCCCN(CC(=O)N(CCCOC(=O)CCCCCCCCC)CC(=O)N(CCCCCC)CC(=O)N(CCCOC(=O)CCCCCCCCC)CC(=O)N(CCCOC(=O)CCCCCCCCC)CC(=O)N(CCCCCC)CC(N)=O)C(=O)CN(C=O)CCCN1CCOCC1 [Compound 108] (For-[Gly(N-3-morpholinopropyl)][Gly(N-(3-decanoyloxypropyl))][Gly(N-(3-decanoyloxypropyl))][NHexGly][Gly(N-(3-decanoyloxypropyl))][Gly(N-(3-decanoyloxypropyl))][NHexGly]-NH2) | 4.91E+09 p/s | 377 ng/mL | 1.25E+08 p/s | 1.74E+08 p/s | Particle Size ([1]; formulation recipe F2): 95.3 nm; % Encapsulation (mRNA; formulation recipe F2): 60.1%; Total Flux (luciferase expression) (firefly luciferase; formulation recipe F2): 1.47E+09 p/s |
| 0.173 | 87.5 nm | 69.5% | 48.80% | CCCCCCCCCC(=O)OCCCN(CC(=O)N(CCCOC(=O)CCCCCCCCC)CC(=O)N(CCCCCC)CC(=O)N(CCCOC(=O)CCCCCCCCC)CC(=O)N(CCCOC(=O)CCCCCCCCC)CC(=O)N(CCCCCC)CC(N)=O)C(=O)CNCCCn1ccnc1 [Compound 109] (H-[N(3-imidazol-1-ylpropyl)Gly][Gly(N-(3-decanoyloxypropyl))][Gly(N-(3-decanoyloxypropyl))][NHexGly][Gly(N-(3-decanoyloxypropyl))][Gly(N-(3-decanoyloxypropyl))][NHexGly]-NH2) | 1.85E+09 p/s | 108 ng/mL | 3.97E+07 p/s | 1.00E+08 p/s |  |
| 0.088 | 102.9 nm | 50.5% | 5.52% | CCCCCCCCCC(=O)OCCCN(CC(=O)N(CC(N)=O)CC(CC)CCCC)C(=O)CN(CCCCCCCC)C(=O)CN(CC(CC)CCCC)C(=O)CN(CCCOC(=O)CCCCCCCCC)C(=O)CN(CCCCCCCC)C(=O)CN(C=O)CCCN1CCOCC1 (stereo not shown) [Compound 110] (For-[Gly(N-3-morpholinopropyl)][N(octyl)Gly][Gly(N-(3-decanoyloxypropyl))][N(2-ethylhexyl)Gly][N(octyl)Gly][Gly(N-(3-decanoyloxypropyl))][N(2-ethylhexyl)Gly]-NH2) | 2.54E+09 p/s | 333 ng/mL | 1.43E+08 p/s | 2.34E+08 p/s |  |
